The numbers were not newly measured in US20090069345A1, “Pharmaceutically Stable Compound Consisting of Timolol, Dorzolamide and Brimonidine” (priority 2007, published 2009), which cites them from elsewhere.

For series [1] the following is noted: intravenous injection, first 3 hours.
Series [2] deals with eye of a rabbit. Particulars: concentrations above those normally used in formulations.

For the compound `OC[C@@H](O)[C@@H](O)[C@H](O)[C@H](O)CO` [Mannitol], in series [1], the “dose excreted in urine” value is reported as “about 80%”.
For Benzalkonium chloride, the “toxicity to the eye” value in series [2] is “damaging”.
